According to ChEMBL document CHEMBL5260810, “Inhibition of bromodomain-containing protein 9 for the prevention of epigenetically-defined drug resistance” (Bioorg Med Chem Lett, 2017):

Experiments:
Format in all cases: functional, cell-based
MIA PaCa-2 = assay: Cytotoxicity against human MIA Paca-2 cells measured after 8 days; settings: MIA PaCa-2, 192 h
MDA-MB-175-VII = assay: Cytotoxicity against human MDA-MB-175-VII cells measured after 8 days; settings: 192 h
[1] = Cytotoxicity against human NCI-H2804 cells measured after 8 days; settings: NCI-H2804, 192 h
HuP-T4 = assay: Cytotoxicity against human HuP-T4 cells measured after 8 days; settings: HuP-T4, 192 h
RPMI-7951 = assay: Cytotoxicity against human RPMI-7951 cells measured after 8 days; settings: RPMI-7951, 192 h
[2] = Cytotoxicity against human HCC2885 cells measured after 8 days; settings: HCC2885, 192 h
SU-DHL-5 = assay: Cytotoxicity against human SU-DHL-5 cells measured after 8 days; settings: SU-DHL-5, 192 h
[3] = Cytotoxicity against human KMS-26 cells measured after 8 days; settings: KMS-26, 192 h
CAL-27 = assay: Cytotoxicity against human CAL-27 cells measured after 8 days; settings: CAL-27, 192 h
[4] = Cytotoxicity against human COLO 685 cells measured after 8 days; settings: COLO 685, 192 h
CAL-54 = assay: Cytotoxicity against human CAL-54 cells measured after 8 days; settings: CAL-54, 192 h
KALS-1 = assay: Cytotoxicity against human KALS-1 cells measured after 8 days; settings: KALS-1, 192 h
KMS-12-PE = assay: Cytotoxicity against human KMS-12-PE cells measured after 8 days; settings: 192 h
CCF-STTG1 = assay: Cytotoxicity against human CCF-STTG1 cells measured after 8 days; settings: CCF-STTG1, 192 h
[5] = Cytotoxicity against human CL-34 cells measured after 8 days; settings: CL-34, 192 h
[6] = Cytotoxicity against human RERF-GC-1B cells measured after 8 days; settings: 192 h
HuP-T3 = assay: Cytotoxicity against human HuP-T3 cells measured after 8 days; settings: HuP-T3, 192 h
[7] = Cytotoxicity against human SBC-7 cells measured after 8 days; settings: SBC-7, 192 h
SNU-387 = assay: Cytotoxicity against human SNU-387 cells measured after 8 days; settings: SNU-387, 192 h
[8] = Cytotoxicity against mouse TRAMP-C2 cells measured after 8 days; settings: TRAMP-C2, 192 h
BT-474 = assay: Cytotoxicity against human BT-474 cells measured after 8 days; settings: BT-474, 192 h
G-402 = assay: Cytotoxicity against human G-402 cells measured after 8 days; settings: G-402, 192 h
Skut1B = assay: Cytotoxicity against human Skut1B cells measured after 8 days; settings: 192 h
[9] = Cytotoxicity against human SNU-668 cells measured after 8 days; settings: SNU668, 192 h
[10] = Cytotoxicity against human KPR3351 cells measured after 8 days; settings: KPR3351, 192 h
CAL-148 = assay: Cytotoxicity against human CAL-148 cells measured after 8 days; settings: CAL-148, 192 h
[11] = Cytotoxicity against mouse LL2 cells measured after 8 days; settings: Lewis lung carcinoma, 192 h
[12] = Cytotoxicity against human KPP14388 LN cells measured after 8 days; settings: 192 h
IPC-298 = assay: Cytotoxicity against human IPC-298 cells measured after 8 days; settings: IPC-298, 192 h
[13] = Cytotoxicity against human HuH-1 cells measured after 8 days; settings: HuH-1, 192 h
[14] = Cytotoxicity against human HEC-50B cells measured after 8 days; settings: 192 h
OCI-Ly10 = assay: Cytotoxicity against human OCI-Ly10 cells measured after 8 days; settings: OCI-Ly10, 192 h
SK-N-AS = assay: Cytotoxicity against human SK-N-AS cells measured after 8 days; settings: 192 h
[15] = Cytotoxicity against human KNS-81 cells measured after 8 days; settings: KNS-81, 192 h
[16] = Cytotoxicity against human HEC-151 cells measured after 8 days; settings: HEC-151, 192 h
Hs 695T = assay: Cytotoxicity against human Hs 695T cells measured after 8 days; settings: 192 h
SNG-M = assay: Cytotoxicity against human SNG-M cells measured after 8 days; settings: 192 h
[17] = Cytotoxicity against human MT-3 cells measured after 8 days; settings: MT-3, 192 h
[18] = Cytotoxicity against human NCE-G 118 cells measured after 8 days; settings: NCE-G 118, 192 h
A-431 = assay: Cytotoxicity against human A-431 cells measured after 8 days; settings: A-431, 192 h
[19] = Cytotoxicity against human NCE-G 124 cells measured after 8 days; settings: NCE-G 124, 192 h
ML-2 = assay: Cytotoxicity against human ML-2 cells measured after 8 days; settings: ML-2, 192 h
LXFL 529 = assay: Cytotoxicity against human LXFL 529 cells measured after 8 days; settings: LXFL 529, 192 h
RCM-1 = assay: Cytotoxicity against human RCM-1 cells measured after 8 days; settings: RCM-1, 192 h
8305C = assay: Cytotoxicity against human 8305C cells measured after 8 days; settings: 192 h
[20] = Cytotoxicity against mouse ID8 cells measured after 8 days; settings: ID8, 192 h
KMS-12-BM = assay: Cytotoxicity against human KMS-12-BM cells measured after 8 days; settings: 192 h
[21] = Cytotoxicity against human COV504 cells measured after 8 days; settings: COV504, 192 h
SNU-449 = assay: Cytotoxicity against human SNU-449 cells measured after 8 days; settings: SNU-449, 192 h
[22] = Cytotoxicity against human QGP-1 cells measured after 8 days; settings: QGP-1, 192 h
HPAF-II = assay: Cytotoxicity against human HPAF-II cells measured after 8 days; settings: 192 h
SiHa = assay: Cytotoxicity against human SiHa cells measured after 8 days; settings: 192 h
HeLa = assay: Cytotoxicity against human HeLa cells measured after 8 days; settings: 192 h
[23] = Cytotoxicity against human SKG-II cells measured after 8 days; settings: 192 h
[24] = Cytotoxicity against human GR-M cells measured after 8 days; settings: 192 h
S-117 = assay: Cytotoxicity against human S-117 cells measured after 8 days; settings: S-117, 192 h
[25] = Cytotoxicity against human RKOE6 cells measured after 8 days; settings: RKOE6, 192 h
SK-N-FI = assay: Cytotoxicity against human SK-N-FI cells measured after 8 days; settings: 192 h
KMS-11 = assay: Cytotoxicity against human KMS-11 cells measured after 8 days; settings: KMS-11, 192 h
[26] = Cytotoxicity against human HCC1482 cells measured after 8 days; settings: HCC1482, 192 h
[27] = Cytotoxicity against human 537-mel cells measured after 8 days; settings: 192 h
SNU-475 = assay: Cytotoxicity against human SNU-475 cells measured after 8 days; settings: SNU-475, 192 h
[28] = Cytotoxicity against human UKE-1 cells measured after 8 days; settings: UKE1, 192 h

`C/C=C/Cn1cc(-c2ccc(C(C)(C)O)cc2OC)c2cc[nH]c2c1=O` showed an IC50 (MIA PaCa-2) of 20 µM, an IC50 (MDA-MB-175-VII) of 20 µM and an IC50 [1] of 20 µM. The IC50 (HuP-T4) was 20 µM, the IC50 (RPMI-7951) was 20 µM and the IC50 [2] was 20 µM. The IC50 (SU-DHL-5) was 10.3 µM, the IC50 [3] was 2.61 µM and the IC50 (CAL-27) was 20 µM. The IC50 [4] was 20 µM, the IC50 (CAL-54) was 20 µM and the IC50 (KALS-1) was 20 µM. It also gave an IC50 (KMS-12-PE) of 20 µM, an IC50 (CCF-STTG1) of 20 µM and an IC50 [5] of 20 µM. It also gave an IC50 [6] of 20 µM, an IC50 (HuP-T3) of 14.1 µM and an IC50 [7] of 20 µM. It also gave an IC50 (SNU-387) of 20 µM, an IC50 [8] of 20 µM and an IC50 (BT-474) of 20 µM. The IC50 (G-402) was 11.7 µM, the IC50 (Skut1B) was 20 µM and the IC50 [9] was 20 µM. It also gave an IC50 [10] of 20 µM, an IC50 (CAL-148) of 20 µM and an IC50 [11] of 20 µM. It also gave an IC50 [12] of 20 µM, an IC50 (IPC-298) of 20 µM and an IC50 [13] of 20 µM. The IC50 [14] was 20 µM, the IC50 (OCI-Ly10) was 20 µM and the IC50 (SK-N-AS) was 20 µM. The IC50 [15] was 20 µM, the IC50 [16] was 20 µM and the IC50 (Hs 695T) was 20 µM. The IC50 (SNG-M) was 20 µM, the IC50 [17] was 20 µM and the IC50 [18] was 20 µM. For the same molecule, the IC50 (A-431) was 20 µM, the IC50 [19] was 20 µM and the IC50 (ML-2) was 20 µM. The IC50 (LXFL 529) was 20 µM, the IC50 (RCM-1) was 20 µM and the IC50 (8305C) was 20 µM. The IC50 [20] was 20 µM, the IC50 (KMS-12-BM) was 20 µM and the IC50 [21] was 20 µM. For the same molecule, the IC50 (SNU-449) was 20 µM, the IC50 [22] was 20 µM and the IC50 (HPAF-II) was 20 µM. The IC50 (SiHa) was 20 µM, the IC50 (HeLa) was 20 µM and the IC50 [23] was 20 µM. It also gave an IC50 [24] of 20 µM, an IC50 (S-117) of 20 µM and an IC50 [25] of 20 µM. It also gave an IC50 (SK-N-FI) of 20 µM, an IC50 (KMS-11) of 9.13 µM and an IC50 [26] of 20 µM. The IC50 [27] was 20 µM, the IC50 (SNU-475) was 20 µM and the IC50 [28] was 20 µM.

With `C/C=C/Cn1cc(-c2ccc(C(=O)N3CCOCC3)cc2)c2cc[nH]c2c1=O` the IC50 (MIA PaCa-2) was 20 µM, the IC50 (MDA-MB-175-VII) was 20 µM and the IC50 [1] was 20 µM. It also gave an IC50 (HuP-T4) of 20 µM, an IC50 (RPMI-7951) of 20 µM and an IC50 [2] of 20 µM. The IC50 (SU-DHL-5) was 14.8 µM, the IC50 [3] was 2.11 µM and the IC50 (CAL-27) was 20 µM. It also gave an IC50 [4] of 20 µM, an IC50 (CAL-54) of 20 µM and an IC50 (KALS-1) of 20 µM. For the same molecule, the IC50 (KMS-12-PE) was 20 µM, the IC50 (CCF-STTG1) was 20 µM and the IC50 [5] was 20 µM. The IC50 [6] was 20 µM, the IC50 (HuP-T3) was 20 µM and the IC50 [7] was 20 µM. The IC50 (SNU-387) was 20 µM, the IC50 [8] was 20 µM and the IC50 (BT-474) was 20 µM. The IC50 (G-402) was 4.76 µM, the IC50 (Skut1B) was 20 µM and the IC50 [9] was 20 µM. For the same molecule, the IC50 [10] was 20 µM, the IC50 (CAL-148) was 20 µM and the IC50 [11] was 20 µM. It also gave an IC50 [12] of 20 µM, an IC50 (IPC-298) of 18.6 µM and an IC50 [13] of 20 µM. The IC50 [14] was 20 µM, the IC50 (OCI-Ly10) was 20 µM and the IC50 (SK-N-AS) was 20 µM. For the same molecule, the IC50 [15] was 20 µM, the IC50 [16] was 20 µM and the IC50 (Hs 695T) was 20 µM. The IC50 (SNG-M) was 20 µM, the IC50 [17] was 20 µM and the IC50 [18] was 20 µM. The IC50 (A-431) was 20 µM, the IC50 [19] was 20 µM and the IC50 (ML-2) was 20 µM. For the same molecule, the IC50 (LXFL 529) was 20 µM, the IC50 (RCM-1) was 20 µM and the IC50 (8305C) was 20 µM. The IC50 [20] was 20 µM, the IC50 (KMS-12-BM) was 13.7 µM and the IC50 [21] was 20 µM. For the same molecule, the IC50 (SNU-449) was 20 µM, the IC50 [22] was 20 µM and the IC50 (HPAF-II) was 20 µM. The IC50 (SiHa) was 20 µM, the IC50 (HeLa) was 20 µM and the IC50 [23] was 20 µM. For the same molecule, the IC50 [24] was 20 µM, the IC50 (S-117) was 20 µM and the IC50 [25] was 20 µM. The IC50 (SK-N-FI) was 20 µM, the IC50 (KMS-11) was 12.4 µM and the IC50 [26] was 20 µM. The IC50 [27] was 20 µM, the IC50 (SNU-475) was 20 µM and the IC50 [28] was 12.4 µM.
